Results reported in article PMC8351955, “Targeting Mycobacterium tuberculosis response to environmental cues for the development of effective antitubercular drugs” (PLoS Biology, 2021).
“And” between values parts separate entries of the source, which are not always exact repeats. Identical values can stand only once. Like-named read-outs stand apart in the source and are kept apart here.

Legend:
[1] = test system: CDC1551(rv2390c′::GFP) reporter Mtb strain, response to high [Cl−]; assay: microbe, parasite or virus in culture; type: cell-based, Mycobacterium tuberculosis
[2] = test system: macrophage phagosomal acidification in BMDMs; assay: Phagosomal maturation assay, carboxyfluorescein beads (pH readout); type: cell-based, mouse; details: for 490 nm/450 nm, Average: average of 5 replicates
Protocol: Carboxyfluorescein (pH readout), DQ-BSA/Alexa Fluor 594 (AF594) (proteolysis readout), and BAC/AF594 (Cl^− readout) beads were generated essentially as previously described, except that 10,10′-Bis[3-carboxylpropyl]-9,9′-biacridinium dinitrate di-NHS ester (BAC-SE) was purchased from emp Biotech LLC. BMDMs were isolated from C57BL/6J mice (The Jackson Laboratory) and maintained as described above. A quantity of 2 × 10^5 macrophages/well were seeded into 96-well clear bottom black plates and utilized in assays 1 to 2 days post-seeding. […] Assay buffer consisted of PBS (pH 7.2), supplemented with 5% FBS, 5 mM dextrose, 1 mM CaCl2, 2.7 mM KCl, and 0.5 mM MgCl2 in the case of assays with the carboxyfluorescein or DQ-BSA/AF594 beads. For assays with the BAC/AF594 beads, assay buffer consisted of PBS (pH 7.2), supplemented with 5% FBS, 5 mM dextrose, 1 mM calcium acetate, 1.35 mM K2SO4, and 0.5 mM MgSO4 [9]. Sensor beads at approximately 2 to 5 beads/macrophage in appropriate assay buffer were finally added, with data acquisition on a Biotek Synergy H1 microplate reader with bottom read signal detection started within 2 to 3 minutes of bead addition. Excitation/emission wavelengths were 450 nm/520 nm and 490 nm/520 nm for carboxyfluorescein, 490 nm/520 nm for DQ-BSA, 365 nm/505 nm for BAC, and 590 nm/617 nm for AF594. Each experiment was run with a total of 3 to 5 replicate wells/condition, with temperature maintained at 37°C throughout the assay. Wells were read every 2 minutes for 2 hours for the carboxyfluorescein bead assays, every 2 minoutes for 4 hours for the DQ-BSA/AF594 bead assays, and every 1 minute for 2 hours for the BAC/AF594 bead assays. Analyses of the results were performed as previously described.

Mtb = Mtb growth assay in standard 7H9 medium (OD600); details: for OD600: Fig. 2F
From the text: Bacterial growth was tracked by measuring OD600 every 3 days for 12 days. […] Bacterial growth was tracked by measurement of OD600 every 3 days over 12 days.

CCSc1ncc(CN2CCN(c3nc4ccccc4o3)CC2)cn1 [C6, 2-(4-((2-(ethylthio)pyrimidin-5-yl)methyl)piperazin-1-yl)benzo[d]oxazole]
NPA - rv2390c'::GFP, average ([1]; 0.0390625 µM, Fig 1C): 83.3% | NPA - rv2390c'::GFP, average ([1]; 0.078125 µM, Fig 1C): 86.0333% | NPA - rv2390c'::GFP, average ([1]; 0.15625 µM, Fig 1C): 80.7667% | NPA - rv2390c'::GFP, average ([1]; 0.3125 µM, Fig 1C): 92.0333% | NPA - rv2390c'::GFP, average ([1]; 0.625 µM, Fig 1C): 91.4667% | NPA - rv2390c'::GFP, average ([1]; 1.25 µM, Fig 1C): 105.667% | NPA - rv2390c'::GFP, average ([1]; 2.5 µM, Fig 1C): 116.333% | NPA - rv2390c'::GFP, average ([1]; 5 µM, Fig 1C): 113% | NPA - rv2390c'::GFP, average ([1]; 10 µM, Fig 1C): 126.667% | NPA - rv2390c'::GFP, average ([1]; 20 µM, Fig 1C): 131% | activity at 10 µM ([1]; Mycobacterium tuberculosis, 144 h, pH 6.4, […], DMSO positive control = 100%, read-out: Primary screen rv2390c'::GFP NPA%): 164% | activity at 10 µM ([1]; Mycobacterium tuberculosis, 144 h, 10 µM, pH 6.4, 250 mM NaCl, 6 days, read-out: rv2390c'::GFP validation assay NPA% at 10 µM compound): 127 ± 1.5% | activity at 20 µM ([1]; Mycobacterium tuberculosis, 144 h, 20 µM, pH 6.4, 250 mM NaCl, 6 days, read-out: rv2390c'::GFP validation assay NPA% at 20 µM compound): 131 ± 3.6% | AC50 ([1]; Mycobacterium tuberculosis, 144 h, pH 6.4, 250 mM NaCl, 6 days, Fig 1C, read-out: AC50 (activatory concentration, 50%), rv2390c′::GFP): 1800 nM | Effect on macrophage phagosomal acidification ([2]; 10 μM, uninfected BMDMs): did not alter | 490 nm/450 nm, Average ([2]; time 0 minutes): 4.858 | 490 nm/450 nm, Average ([2]; time 2 minutes): 4.93 | 490 nm/450 nm, Average ([2]; time 4 minutes): 4.883 | 490 nm/450 nm, single replicates (Rep 1-5) ([2]; time 6 minutes): 4.9284 and 4.8623 and 4.895 and 4.851 and 4.867 | 490 nm/450 nm, Average ([2]; time 6 minutes): 4.881 | 490 nm/450 nm, single replicates (Rep 1-5) ([2]; time 8 minutes): 4.803 and 4.864 and 4.815 and 4.7957 and 4.8066 | 490 nm/450 nm, Average ([2]; time 8 minutes): 4.817 | 490 nm/450 nm, single replicates (Rep 1-5) ([2]; time 10 minutes): 4.783 and 4.786 and 4.81 and 4.727 and 4.764 | 490 nm/450 nm, Average ([2]; time 10 minutes): 4.774 | 490 nm/450 nm, single replicates (Rep 1-5) ([2]; time 12 minutes): 4.5604 and 4.6849 and 4.647 and 4.525 and 4.478 | 490 nm/450 nm, Average ([2]; time 12 minutes): 4.579 | 490 nm/450 nm, single replicates (Rep 1-5) ([2]; time 14 minutes): 4.45 and 4.492 and 4.497 and 4.303 and 4.234 | 490 nm/450 nm, Average ([2]; time 14 minutes): 4.395 | 490 nm/450 nm, single replicates (Rep 1-5) ([2]; time 16 minutes): 4.182 and 4.214 and 4.296 and 4.029 and 3.894 | 490 nm/450 nm, Average ([2]; time 16 minutes): 4.123 | 490 nm/450 nm, single replicates (Rep 1-5) ([2]; time 18 minutes): 3.914 and 3.991 and 4.055 and 3.796 and 3.692 | 490 nm/450 nm, Average ([2]; time 18 minutes): 3.89 | 490 nm/450 nm, single replicates (Rep 1-5) ([2]; time 20 minutes): 3.661 and 3.707 and 3.803 and 3.557 and 3.477 | 490 nm/450 nm, Average ([2]; time 20 minutes): 3.641 | 490 nm/450 nm, single replicates (Rep 1-5) ([2]; time 22 minutes): 3.443 and 3.455 and 3.57 and 3.319 and 3.292 | 490 nm/450 nm, Average ([2]; time 22 minutes): 3.416 | 490 nm/450 nm, single replicates (Rep 1-5) ([2]; time 24 minutes): 3.1867 and 3.242 and 3.389 and 3.087 and 3.065 | 490 nm/450 nm, Average ([2]; time 24 minutes): 3.194 | 490 nm/450 nm, single replicates (Rep 1-5) ([2]; time 26 minutes): 3.004 and 3.052 and 3.169 and 2.941 and 2.895 | 490 nm/450 nm, Average ([2]; time 26 minutes): 3.012 | 490 nm/450 nm, single replicates (Rep 1-5) ([2]; time 28 minutes): 2.852 and 2.904 and 3.023 and 2.803 and 2.7626 | 490 nm/450 nm, Average ([2]; time 28 minutes): 2.869 | 490 nm/450 nm, single replicates (Rep 1-5) ([2]; time 30 minutes): 2.719 and 2.762 and 2.859 and 2.651 and 2.679 | 490 nm/450 nm, Average ([2]; time 30 minutes): 2.734 | 490 nm/450 nm, single replicates (Rep 1-5) ([2]; time 32 minutes): 2.588 and 2.623 and 2.733 and 2.5744 and 2.581 | 490 nm/450 nm, Average ([2]; time 32 minutes): 2.62 | 490 nm/450 nm, single replicates (Rep 1-5) ([2]; time 34 minutes): 2.506 (2×) and 2.556 and 2.644 and 2.5507 | 490 nm/450 nm, Average ([2]; time 34 minutes): 2.552 | 490 nm/450 nm, single replicates (Rep 1-5) ([2]; time 36 minutes): 2.483 and 2.493 and 2.575 and 2.447 and 2.499 | 490 nm/450 nm, Average ([2]; time 36 minutes): 2.499 | 490 nm/450 nm, single replicates (Rep 1-5) ([2]; time 38 minutes): 2.411 and 2.458 and 2.4978 and 2.4066 and 2.452 | 490 nm/450 nm, Average ([2]; time 38 minutes): 2.445 | 490 nm/450 nm, single replicates (Rep 1-5) ([2]; time 40 minutes): 2.369 and 2.38 and 2.4986 and 2.406 and 2.442 | 490 nm/450 nm, Average ([2]; time 40 minutes): 2.419 | 490 nm/450 nm, single replicates (Rep 1-5) ([2]; time 42 minutes): 2.364 and 2.3783 and 2.434 and 2.346 and 2.427 | 490 nm/450 nm, Average ([2]; time 42 minutes): 2.3898 | 490 nm/450 nm, single replicates (Rep 1-5) ([2]; time 44 minutes): 2.319 and 2.337 and 2.405 and 2.355 and 2.4128 | 490 nm/450 nm, Average ([2]; time 44 minutes): 2.3655 | 490 nm/450 nm, Average ([2]; time 46 minutes): 2.351 | 490 nm/450 nm, Average ([2]; time 48 minutes): 2.35 | 490 nm/450 nm, Average ([2]; time 50 minutes): 2.351 | 490 nm/450 nm, Average ([2]; time 52 minutes): 2.342 | 490 nm/450 nm, Average ([2]; time 54 minutes): 2.342 | 490 nm/450 nm, Average ([2]; time 56 minutes): 2.334 | 490 nm/450 nm, Average ([2]; time 58 minutes): 2.337 | 490 nm/450 nm, Average ([2]; time 60 minutes): 2.3392 | 490 nm/450 nm, Average ([2]; time 62 minutes): 2.354 | 490 nm/450 nm, Average ([2]; time 64 minutes): 2.349 | 490 nm/450 nm, Average ([2]; time 66 minutes): 2.351 | 490 nm/450 nm, Average ([2]; time 68 minutes): 2.358 | 490 nm/450 nm, Average ([2]; time 70 minutes): 2.362 | 490 nm/450 nm, Average ([2]; time 72 minutes): 2.363 | 490 nm/450 nm, Average ([2]; time 74 minutes): 2.3781 | 490 nm/450 nm, Average ([2]; time 76 minutes): 2.3813 | 490 nm/450 nm, Average ([2]; time 78 minutes): 2.38 | 490 nm/450 nm, Average ([2]; time 80 minutes): 2.392 | 490 nm/450 nm, Average ([2]; time 82 minutes): 2.387 | 490 nm/450 nm, Average ([2]; time 84 minutes): 2.389 | 490 nm/450 nm, Average ([2]; time 86 minutes): 2.399 | 490 nm/450 nm, Average ([2]; time 88 minutes): 2.414 | 490 nm/450 nm, Average ([2]; time 90 minutes): 2.411 | 490 nm/450 nm, Average ([2]; time 92 minutes): 2.4274 | 490 nm/450 nm, Average ([2]; time 94 minutes): 2.4259 | 490 nm/450 nm, Average ([2]; time 96 minutes): 2.426 | 490 nm/450 nm, Average ([2]; time 98 minutes): 2.438 | 490 nm/450 nm, Average ([2]; time 100 minutes): 2.447 | 490 nm/450 nm, Average ([2]; time 102 minutes): 2.452 | 490 nm/450 nm, Average ([2]; time 104 minutes): 2.453 | 490 nm/450 nm, Average ([2]; time 106 minutes): 2.461 | 490 nm/450 nm, Average ([2]; time 108 minutes): 2.469 | 490 nm/450 nm, Average ([2]; time 110 minutes): 2.47 | 490 nm/450 nm, Average ([2]; time 112 minutes): 2.479 | 490 nm/450 nm, Average ([2]; time 114 minutes): 2.475 | 490 nm/450 nm, Average ([2]; time 116 minutes): 2.485 | 490 nm/450 nm, Average ([2]; time 118 minutes): 2.494 | 490 nm/450 nm, Average ([2]; time 120 minutes): 2.492 | Effect on Mtb growth in standard 7H9 media (Mtb; 10 μM, OD600 over 12 days): no effect | OD600 (Mtb; day 3, average): 0.1933 | OD600 (Mtb; day 3, individual replicates): 0.2 (2×) and 0.18 | OD600 (Mtb; day 6, average): 0.3733 | OD600 (Mtb; day 6, individual replicates): 0.38 (2×) and 0.36 | OD600 (Mtb; day 9, average): 0.4933 | OD600 (Mtb; day 9, individual replicates): 0.5 (2×) and 0.48 | OD600 (Mtb; day 12, average): 0.6333 | OD600 (Mtb; day 12, individual replicates): 0.64 (2×) and 0.62
